Results: patent US20090203739A1, “Anti-Inflammatory Agents” (priority 2005, published 2009)
Bridges are numbered along the chain shown (N, C = ends). Where no end group is shown, it is not given here. [ ]: non-standard residue; d: D form.

Experiments:
[1] = system: MCP-1 induced leukocyte migration (THP-1 cells); assay: Inhibition of MCP-1 induced leukocyte migration (96-well transwell assay, THP-1 cells); type: cell-based; conditions: Homo sapiens, MCP-1 25 ng/ml, 2 hours at 37° C., read-out: ED50 (concentration of compound required to reduce the MCP-1-induced migration by 50%)
Protocol: In principle, this assay consists of two chambers separated by a porous membrane. The chemoattractant is placed in the lower compartment and the cells are placed in the upper compartment. After incubation for a period at 37° C. the cells move towards the chemoattractant, and the number of cells in the lower compartment is proportional to the chemoattractant activity (relative to a series of controls).
The THP-1 cell line (European Cell culture Collection) were used as the leukocyte cell population.
The following procedure is used for testing the invention compounds for MCP-1 induced leukocyte migration:
First, the cell suspension to be placed in the upper compartment is prepared. The THP-1 cells are pelleted by centrifugation (770×g; 4 mins) and washed with Geys Balanced Salt Solution with 1 mg/ml BSA (GBSS+BSA). This wash is then repeated, and the cells repelleted before being resuspended in a small volume of GBSS+BSA for counting, for example using a standard haemocytometer.
The volume of GBSS+BSA is then adjusted depending on the number of cells present so that the cells are at final density of 4.45×10^6 cells per ml of GBSS+BSA. This ensures that there are […] THP-1 cells in each 25 μl of the solution that will be placed in the upper chamber of the plate.
To test a single compound for its ability to inhibit MCP-1 induced migration, it is necessary to prepare two lots of cells. The suspension of THP-1 cells at 4.45×10^6 cells/ml is divided into two pots. To one pot the inhibitor under test is added at an appropriate final concentration, in an appropriate vehicle (for example at 1 μM in not more than 1% DMSO). To the second pot an equal volume of GBSS+BSA plus vehicle as appropriate (e.g. not more than 1% DMSO) is added to act as a control.
Next, the chemoattractant solution to be placed in the lower compartment is prepared. MCP-1 is diluted in GBSS+BSA to give a final concentration of 25 ng/ml. This is divided into two pots, as for the cell suspension. To one pot, the test compound is added to the same final concentration as was added to the cell suspension, while to the other pot an equal volume of GBSS+BSA plus vehicle as appropriate (e.g. not more than 1% DMSO) is added.
Note that the volume of liquid that needs to be added to make the addition of the text compound needs to be taken into account, when establishing the final concentration of MCP-1 in the solution for the lower compartment and the final concentration of cells in the upper compartment.
Once the chemoattractant solutions for the lower wells and cell solutions for the upper chambers have been prepared, the migration chamber should be assembled. Place 29 μl of the appropriate chemoattractant solution into the lower well of the chamber. Assays should be performed with at least triplicate determinations of each condition. Once all the lower chambers have been filled, apply the prous membrane to the chamber in accordance with the manufacturer's instructions. Finally, apply 25 μl of the appropriate cell solution to each upper chamber. A plastic lid is placed over the entire apparatus to prevent evaporation.
The assembled chamber is incubated at 37° C., 5% CO2, for 2 hours. A suspension of cells in GBSS+BSA is also incubated under identical conditions in a tube: these cells will be used to construct a standard curve for determining the number of cells that have migrated to the lower chamber under each condition. […]

Stability in serum = type: in vitro ADME; conditions: 37° C., completely stable
Excerpt: As an approach to identifying such stable analogs, various derivatives of (S)-3-(undec-10-enoyl)-aminoglutarimide have been tested for their stability in serum.

[2] = system: chemokine-induced migration; conditions: versus (S)-3-(undec-10-enoyl)-aminoglutarimide; cited from earlier work
[3] = cited from earlier work

Row | Compound | EC50 [1] [nM] | also measured
1 | CC1(C(=O)N[C@H]2CCCNC2=O)CCCCC1 [Example 5, (S)-3-(1′-Methylcyclohexanecarbonyl)amino-tetrahydropyridin-2-one] | ≤ 100 | –
2 | C=CCCCCCCCCC(=O)[C@@H]1CCCNC1=O [(S)-3-(undec-10-enoyl)-tetrahydropyridin-2-one] | – | stability in human serum (Stability in serum): at least 7 days; potency compared with the parental molecule [2]: considerably reduced potency
3 | CC1(C(=O)N[C@H]2CCNC2=O)CCCCC1 [Example 6, (S)-3-(1′-Methylcyclohexanecarbonyl)amino-pyrrolidin-2-one] | ≤ 100 | –
4 | O=C1NCCC[C@@H]1NC(=O)C1(c2ccccc2)CCCCC1 [Example 7, (S)-3-(1′-Phenylcyclohexanecarbonyl)amino-tetrahydropyridin-2-one] | ≤ 100 | –
5 | c(DCys-DGln-DIle-DTrp-DLys-DGln-DLys-DPro-DAsp-DLeu-DCys)-NH2 ([dC][dQ][dI][dW][dK][dQ][dK][dP][dD][dL][dC]-NH2; disulfide 1-11 (inferred)) [NR58-3.14.3] | – | half-life period of clearance from blood plasma ([3]; after intravenous injection): less than 30 minutes; oral bioavailability ([3]; in vivo, po): not orally bioavailable
6 | CCCCCCCCCCC(C)(C)C(=O)N[C@H]1CCCNC1=O [Example 3, (S)-3-(2′,2′-Dimethyldodecanoylamino)-tetrahydropyridin-2-one] | ≤ 100 | –
7 | CCCCCCCCCCC(C)(C)C(=O)N[C@H]1CCNC1=O [Example 4, (S)-3-(2′,2′-Dimethyldodecanoylamino)-pyrrolidin-2-one] | ≤ 100 | –
